Assay results from US20250353891A1 (MEDIMMUNE LIMITED, priority 2022, published 2025).
Starred links: 1 amine or outer side, 2 acyl side, 3 side chain; linkers in the order of their positions; H or OH if unused. Non-standard residues stand in square brackets, D forms with d. Residues, ends and D or L forms follow the SMILES beside them. Groups on a side chain read outwards from the residue. *: point of attachment. C18 diacid = O=C(O)CCCCCCCCCCCCCCCCC(=O)*; γGlu = O=C(O)[C@H](CCC(=O)[*:2])N[*:1]; αMeF = C[C@](N)(Cc1ccccc1)C(=O)O; AEEA = NCCOCCOCC(=O)O; Aib = CC(C)(N)C(=O)O

Key:
[1] = target: human GLP-1 receptor (hGLP-1R) (Homo sapiens, UniProt P43220); experiment: cAMP production (HTRF) in CHO cells expressing hGLP-1R; format: cell-based; design: expressed in transfected cells; conditions: for EC50: Table 6, peptides modified at position 17, cAMP in CHO hGLP-1R cells, geometric mean, read-out: hGLP-1R EC50; for % Relative Potency Ratio: Table 6, % GLP-1R activity relative to GLP-1 / % GlucR activity relative to glucagon
Chain of human GLP-1 receptor (hGLP-1R) (P43220 24-463): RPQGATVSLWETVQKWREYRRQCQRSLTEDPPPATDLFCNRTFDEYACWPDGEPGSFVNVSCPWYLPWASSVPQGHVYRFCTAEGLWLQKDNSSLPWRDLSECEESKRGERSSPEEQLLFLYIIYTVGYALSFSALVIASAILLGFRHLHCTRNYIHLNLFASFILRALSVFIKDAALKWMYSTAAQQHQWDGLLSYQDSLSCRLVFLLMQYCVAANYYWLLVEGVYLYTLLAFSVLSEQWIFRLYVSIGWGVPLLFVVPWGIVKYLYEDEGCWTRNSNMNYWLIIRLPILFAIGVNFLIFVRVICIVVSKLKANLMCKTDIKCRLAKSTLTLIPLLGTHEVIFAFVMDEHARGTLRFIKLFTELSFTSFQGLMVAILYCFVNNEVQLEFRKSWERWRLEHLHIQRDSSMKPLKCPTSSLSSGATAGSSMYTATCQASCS
Outline: (§1)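 Potency values represent EC50 from 4-parameter logistic curves of HTRF % Delta F signal. Receptor-expressing CHO cells (hGCGR 2×10^5 cells/mL, hGLP-1R 1×10^5 cells/mL) were exposed for 30 min at room temperature before two-step cAMP detection.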

[2] = target: human glucagon receptor (hGCGR) (Homo sapiens, UniProt P47871); experiment: cAMP production (HTRF) in CHO cells expressing hGCGR; format: cell-based; design: expressed in transfected cells; conditions: Table 6, peptides modified at position 17; cAMP in CHO hGCGR cells; geometric mean; read-out: hGluc-R EC50
Chain of human glucagon receptor (hGCGR) (P47871 26-477): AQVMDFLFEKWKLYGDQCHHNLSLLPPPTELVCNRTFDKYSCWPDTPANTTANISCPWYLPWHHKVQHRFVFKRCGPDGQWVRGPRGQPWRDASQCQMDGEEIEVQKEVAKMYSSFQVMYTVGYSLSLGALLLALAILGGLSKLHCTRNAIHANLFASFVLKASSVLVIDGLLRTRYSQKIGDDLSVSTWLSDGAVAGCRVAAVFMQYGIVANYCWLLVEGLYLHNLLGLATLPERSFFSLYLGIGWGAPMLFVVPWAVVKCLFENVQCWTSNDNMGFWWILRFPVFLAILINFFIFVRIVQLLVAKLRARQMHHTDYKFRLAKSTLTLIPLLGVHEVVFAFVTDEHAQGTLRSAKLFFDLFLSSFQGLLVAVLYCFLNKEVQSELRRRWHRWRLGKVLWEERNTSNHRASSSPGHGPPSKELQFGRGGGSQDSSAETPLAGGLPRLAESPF
Outline: as §1

Row | EC50 [1] | % Relative Potency Ratio [1] | EC50 [2] | Structure (SMILES)
1 | 0.143 nM | 3.7 | 0.268 nM | CC(C)C[C@H](NC(=O)[C@H](CC(C)C)NC(=O)[C@H](Cc1c[nH]c2ccccc12)NC(=O)[C@H](CCCNC(=N)N)NC(=O)[C@@H](NC(=O)[C@H](Cc1ccccc1)NC(=O)[C@H](CC(=O)O)NC(=O)[C@H](CCC(N)=O)NC(=O)[C@H](C)NC(=O)[C@H](CCCNC(=N)N)NC(=O)[C@H](CCCCNC(=O)CC[C@H](NC(=O)CC[C@H](NC(=O)COCCOCCNC(=O)COCCOCCNC(=O)CC[C@H](NC(=O)CC[C@H](NC(=O)CCCCCCCCCCCCCCCCC(=O)O)C(=O)O)C(=O)O)C(=O)O)C(=O)O)NC(=O)[C@H](CO)NC(=O)[C@H](CC(=O)O)NC(=O)[C@H](CC(C)C)NC(=O)[C@](C)(Cc1ccccc1)NC(=O)[C@H](CCCCN)NC(=O)[C@H](CO)NC(=O)[C@@H](NC(=O)[C@H](CC(=O)O)NC(=O)[C@H](CO)NC(=O)[C@@H](NC(=O)[C@H](Cc1ccccc1)NC(=O)[C@@H](NC(=O)CNC(=O)[C@H](CCC(N)=O)NC(=O)C(C)(C)NC(=O)[C@@H](N)Cc1c[nH]cn1)[C@@H](C)O)[C@@H](C)O)C(C)C)C(C)C)C(=O)N[C@@H](CCC(=O)O)C(=O)NCC(=O)NC(C)(C)C(=O)O [Peptide 137] (H-H[Aib]QGTFTSDVSK[αMeF]LDSK([γGlu-γGlu-AEEA-AEEA-γGlu-γGlu-C18 diacid])RAQDFVRWLLEG[Aib]-OH; N-terminus assumed)
2 | 0.104 nM | 3.5 | 0.184 nM | CC(C)C[C@H](NC(=O)[C@H](Cc1c[nH]c2ccccc12)NC(=O)[C@H](CCCNC(=N)N)NC(=O)[C@@H](NC(=O)[C@H](Cc1ccccc1)NC(=O)[C@H](CC(=O)O)NC(=O)[C@H](CCC(N)=O)NC(=O)[C@H](C)NC(=O)[C@H](CCCNC(=N)N)NC(=O)[C@H](CCCCNC(=O)CC[C@H](NC(=O)CC[C@H](NC(=O)COCCOCCNC(=O)COCCOCCNC(=O)CC[C@H](NC(=O)CC[C@H](NC(=O)CCCCCCCCCCCCCCCCC(=O)O)C(=O)O)C(=O)O)C(=O)O)C(=O)O)NC(=O)[C@H](CO)NC(=O)[C@H](CC(=O)O)NC(=O)[C@H](CC(C)C)NC(=O)[C@](C)(Cc1ccccc1)NC(=O)[C@H](CCCCN)NC(=O)[C@H](CO)NC(=O)[C@@H](NC(=O)[C@H](CC(=O)O)NC(=O)[C@H](CO)NC(=O)[C@@H](NC(=O)[C@H](Cc1ccccc1)NC(=O)[C@@H](NC(=O)CNC(=O)[C@H](CCC(N)=O)NC(=O)C(C)(C)NC(=O)[C@@H](N)Cc1c[nH]cn1)[C@@H](C)O)[C@@H](C)O)C(C)C)C(C)C)C(=O)N[C@@H](CC(C)C)C(=O)N[C@@H](CCC(=O)O)C(=O)NC(C)(C)C(=O)NCC(=O)O [Peptide 138] (H-H[Aib]QGTFTSDVSK[αMeF]LDSK([γGlu-γGlu-AEEA-AEEA-γGlu-γGlu-C18 diacid])RAQDFVRWLLE[Aib]G-OH; N-terminus assumed)
3 | 0.63 nM | 3.1 | 0.984 nM | CC(C)C[C@H](NC(=O)[C@H](Cc1c[nH]c2ccccc12)NC(=O)[C@H](CCCNC(=N)N)NC(=O)[C@@H](NC(=O)[C@H](Cc1ccccc1)NC(=O)[C@H](CC(=O)O)NC(=O)[C@H](CCC(N)=O)NC(=O)[C@H](C)NC(=O)[C@H](CCCNC(=N)N)NC(=O)[C@H](CCCCNC(=O)CC[C@H](NC(=O)CC[C@H](NC(=O)COCCOCCNC(=O)COCCOCCNC(=O)CC[C@H](NC(=O)CC[C@H](NC(=O)CCCCCCCCCCCCCCCCCCC(=O)O)C(=O)O)C(=O)O)C(=O)O)C(=O)O)NC(=O)[C@H](CO)NC(=O)[C@H](CC(=O)O)NC(=O)[C@H](CC(C)C)NC(=O)[C@](C)(Cc1ccccc1)NC(=O)[C@H](CCCCN)NC(=O)[C@H](CO)NC(=O)[C@@H](NC(=O)[C@H](CC(=O)O)NC(=O)[C@H](CO)NC(=O)[C@@H](NC(=O)[C@H](Cc1ccccc1)NC(=O)[C@@H](NC(=O)CNC(=O)[C@H](CCC(N)=O)NC(=O)C(C)(C)NC(=O)[C@@H](N)Cc1c[nH]cn1)[C@@H](C)O)[C@@H](C)O)C(C)C)C(C)C)C(=O)N[C@@H](CC(C)C)C(=O)N[C@@H](CCC(=O)O)C(=O)NC(C)(C)C(=O)NCC(=O)O [Peptide 139]

Continued, compound first:

Row | Structure (SMILES) | EC50 [1] | % Relative Potency Ratio [1] | EC50 [2]
4 | CC(C)C[C@H](NC(=O)[C@H](Cc1c[nH]c2ccccc12)NC(=O)[C@H](C)NC(=O)[C@@H](NC(=O)[C@H](Cc1ccccc1)NC(=O)[C@H](CC(=O)O)NC(=O)[C@H](CCC(N)=O)NC(=O)[C@H](C)NC(=O)[C@H](CCCNC(=N)N)NC(=O)[C@H](CCCCNC(=O)COCCOCCNC(=O)COCCOCCNC(=O)CC[C@H](NC(=O)CCCCCCCCCCCCCCCCC(=O)O)C(=O)O)NC(=O)[C@H](CO)NC(=O)[C@H](CC(=O)O)NC(=O)[C@H](CC(C)C)NC(=O)[C@](C)(Cc1ccccc1)NC(=O)[C@H](CCCCN)NC(=O)[C@H](CO)NC(=O)[C@@H](NC(=O)[C@H](CC(=O)O)NC(=O)[C@H](CO)NC(=O)[C@@H](NC(=O)[C@H](Cc1ccccc1)NC(=O)[C@@H](NC(=O)CNC(=O)[C@H](CCC(N)=O)NC(=O)C(C)(C)NC(=O)[C@@H](N)Cc1c[nH]cn1)[C@@H](C)O)[C@@H](C)O)C(C)C)C(C)C)C(=O)N[C@@H](CC(C)C)C(=O)N[C@@H](CCC(=O)O)C(=O)NC(C)(C)C(=O)NCC(=O)O [Peptide 141] (H-H[Aib]QGTFTSDVSK[αMeF]LDSK([AEEA-AEEA-γGlu-C18 diacid])RAQDFVAWLLE[Aib]G-OH; N-terminus assumed) | 0.264 nM | 2.9 | 0.392 nM
5 | CC(C)C[C@H](NC(=O)[C@H](Cc1c[nH]c2ccccc12)NC(=O)[C@H](C)NC(=O)[C@@H](NC(=O)[C@H](Cc1ccccc1)NC(=O)[C@H](CC(=O)O)NC(=O)[C@H](CCCNC(=N)N)NC(=O)[C@H](C)NC(=O)[C@H](CCCNC(=N)N)NC(=O)[C@H](CCCCNC(=O)COCCOCCNC(=O)COCCOCCNC(=O)CC[C@H](NC(=O)CCCCCCCCCCCCCCCCC(=O)O)C(=O)O)NC(=O)[C@H](CO)NC(=O)[C@H](CC(=O)O)NC(=O)[C@H](CC(C)C)NC(=O)[C@](C)(Cc1ccccc1)NC(=O)[C@H](CCCCN)NC(=O)[C@H](CO)NC(=O)[C@@H](NC(=O)[C@H](CC(=O)O)NC(=O)[C@H](CO)NC(=O)[C@@H](NC(=O)[C@H](Cc1ccccc1)NC(=O)[C@@H](NC(=O)CNC(=O)[C@H](CCC(N)=O)NC(=O)C(C)(C)NC(=O)[C@@H](N)Cc1c[nH]cn1)[C@@H](C)O)[C@@H](C)O)C(C)C)C(C)C)C(=O)N[C@@H](CC(C)C)C(=O)N[C@@H](CCC(=O)O)C(=O)NC(C)(C)C(=O)NCC(=O)O [Peptide 142] (H-H[Aib]QGTFTSDVSK[αMeF]LDSK([AEEA-AEEA-γGlu-C18 diacid])RARDFVAWLLE[Aib]G-OH; N-terminus assumed) | 0.0594 nM | 3.6 | 0.108 nM
6 | CC(C)C[C@H](NC(=O)[C@H](Cc1c[nH]c2ccccc12)NC(=O)[C@H](CCC(N)=O)NC(=O)[C@@H](NC(=O)[C@H](Cc1ccccc1)NC(=O)[C@H](CC(=O)O)NC(=O)[C@H](CCCNC(=N)N)NC(=O)[C@H](C)NC(=O)[C@H](CCCNC(=N)N)NC(=O)[C@H](CCCCNC(=O)COCCOCCNC(=O)COCCOCCNC(=O)CC[C@H](NC(=O)CCCCCCCCCCCCCCCCC(=O)O)C(=O)O)NC(=O)[C@H](CO)NC(=O)[C@H](CC(=O)O)NC(=O)[C@H](CC(C)C)NC(=O)[C@](C)(Cc1ccccc1)NC(=O)[C@H](CCCCN)NC(=O)[C@H](CO)NC(=O)[C@@H](NC(=O)[C@H](CC(=O)O)NC(=O)[C@H](CO)NC(=O)[C@@H](NC(=O)[C@H](Cc1ccccc1)NC(=O)[C@@H](NC(=O)CNC(=O)[C@H](CCC(N)=O)NC(=O)C(C)(C)NC(=O)[C@@H](N)Cc1c[nH]cn1)[C@@H](C)O)[C@@H](C)O)C(C)C)C(C)C)C(=O)N[C@@H](CC(C)C)C(=O)N[C@@H](CCC(=O)O)C(=O)NC(C)(C)C(=O)NCC(=O)O [Peptide 143] (H-H[Aib]QGTFTSDVSK[αMeF]LDSK([AEEA-AEEA-γGlu-C18 diacid])RARDFVQWLLE[Aib]G-OH; N-terminus assumed) | 0.0191 nM | 3.4 | 0.0326 nM
7 | CC[C@H](C)[C@H](NC(=O)CNC(=O)[C@H](CCCNC(=N)N)NC(=O)[C@H](CO)NC(=O)[C@H](C)NC(=O)[C@H](CC(C)C)NC(=O)[C@H](Cc1c[nH]c2ccccc12)NC(=O)[C@H](CCCNC(=N)N)NC(=O)[C@@H](NC(=O)[C@H](Cc1ccccc1)NC(=O)[C@H](CC(=O)O)NC(=O)[C@H](CCC(N)=O)NC(=O)[C@H](C)NC(=O)[C@H](CCCNC(=N)N)NC(=O)[C@H](CCCCNC(=O)COCCOCCNC(=O)COCCOCCNC(=O)CC[C@H](NC(=O)CCCCCCCCCCCCCCCCC(=O)O)C(=O)O)NC(=O)[C@H](CO)NC(=O)[C@H](CC(=O)O)NC(=O)[C@H](CC(C)C)NC(=O)[C@](C)(Cc1ccccc1)NC(=O)[C@H](CCCCN)NC(=O)[C@H](CO)NC(=O)[C@@H](NC(=O)[C@H](CC(=O)O)NC(=O)[C@H](CO)NC(=O)[C@@H](NC(=O)[C@H](Cc1ccccc1)NC(=O)[C@@H](NC(=O)CNC(=O)[C@H](CCC(N)=O)NC(=O)C(C)(C)NC(=O)[C@@H](N)Cc1c[nH]cn1)[C@@H](C)O)[C@@H](C)O)C(C)C)C(C)C)C(=O)O [Peptide 145] (H-H[Aib]QGTFTSDVSK[αMeF]LDSK([AEEA-AEEA-γGlu-C18 diacid])RAQDFVRWLASRGI-OH) | 0.0226 nM | 401.2 | 4.59 nM
